“Also recorded” adds a separate entry of the source. Counter-ions that a name gives are not always drawn.
Legend:
[1] = target: β-tryptase (Homo sapiens, UniProt P20231); test: Labeling and detection of recombinant proteases (SDS-PAGE blot, NeutrAvidin-HRP); assay type: binding; conditions: 1 µM ABP, 100 ng protease, 30 min 37°C, denaturing SDS-PAGE blot
Method: Recombinant proteases (100 ng) were labeled with 1 µM ABP in reaction buffer in a final volume of 40 µL for 30 min at 37°C. After the addition of 4X Laemmli buffer (Bio-Rad, GmbH) supplemented with Bond-Breaker Tris (2-CarboxyEthyl)Phosphine (TCEP) Solution (Thermo Scientific, United States), the samples were heated at 95°C for 5 min and loaded into 4%–20% Mini-Protean TGX precast gels (Bio-Rad, GmbH). After electrophoresis, the proteins were blotted onto nitrocellulose membranes using the Trans-Blot Transfer Turbo System (Bio-Rad). Membranes were incubated with NeutrAvidin-HRP (1:50,000), and bands were visualized with ECL Select Western Blot Detection Reagent (GE Healthcare Life Sciences) by chemiluminescence (Chemidoc XRS; Bio-Rad). The molecular weight of each band was determined with the Image Lab Software v5 (Bio-Rad).
To further characterize the newly synthesized compounds and their potential to be used as ABPs, nine desthiobiotin probes were used for the labeling and detection of recombinant proteases. The arginine (45b–46b) and the proline-lysine (58b) desthiobiotin probes were used as reference compounds. Whereas the benzyl guanidine (50b, 52b, 54b) and phenyl guanidine probes (55b–57b) were used to determine whether the mechanism of inhibition (reversible or irreversible) is an obstacle to visualize the proteases. Samples of human recombinant proteases (trypsin-3, β-tryptase, and CatG) were incubated with the different probes before electrophoresis and detection with NeutrAvidin-HRP on a Western blot. Figure 7A illustrates the ability of the desthiobiotin probes to indicate the presence of the corresponding trypsin-like enzyme. […] This effect can be explained due to the strong interactions between the active site of the protease and the probes. The high affinity and the slow off-rates were described in Table 5 by the equilibrium constants KI*. Assuming that there is an excess of inhibitor over enzyme, the free inhibitor concentration must be very low, lower than the KI*, in order for the complex to dissociate. Therefore, the high affinity complex E*I survives during the whole process of labeling, gel electrophoresis, and visualization.

[2] = target: T1, Neutrophil Elastase (recombinant neutrophil elastase) (Homo sapiens, UniProt P08246); test: IC50 determination, spectrophotometric protease assay; assay type: biochemical
T1 construct: purchased Enzo LifeSciences
T1 sequence (P08246 30-267): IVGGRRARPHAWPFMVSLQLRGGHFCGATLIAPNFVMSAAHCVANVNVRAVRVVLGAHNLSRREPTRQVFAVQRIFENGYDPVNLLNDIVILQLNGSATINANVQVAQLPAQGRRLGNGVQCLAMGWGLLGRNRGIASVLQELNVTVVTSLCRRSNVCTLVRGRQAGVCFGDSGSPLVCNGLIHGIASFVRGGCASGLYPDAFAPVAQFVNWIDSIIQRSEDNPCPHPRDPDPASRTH
How it was run: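 Compounds were first tested at 10, 1 and .1 μM, and only those reducing activity by at least 50% at 10 μM went on to full IC50 curves. Cleavage of substrates, dosed at their Km, was monitored 30 min at 37°C.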

[3] = test system: proteases in human mast cell supernatants; test: Labeling of mast cell supernatants, functional proteomic profiling; conditions: 1 µM ABP, 10 µg total protein, two donors, IgE/DNP stimulated and non-stimulated
Method: Peripheral blood mononuclear cells (PBMCs) were obtained from buffy coats (Etablissement Français du Sang). CD34^+ precursors cells were isolated from PBMCs (EasySep™ Human CD34 Positive Selection Kit, STEMCELL Technologies) and grown under serum-free conditions using StemSpanTM medium (STEMCELL Technologies) supplemented with recombinant human IL-6 (50 ng/ml; Peprotech), human IL-3 (10 ng/ml; Peprotech) and 3% supernatant of CHO transfectants secreting murine SCF (a gift from Dr. P. Dubreuil, Marseille, France, 3% correspond to ∼50 ng/ml SCF) for 1 week. Cells were next grown in IMDM Glutamax I, sodium pyruvate, 2-mercaptoethanol, .5% BSA, Insulin-transferrin selenium (all from Invitrogen), penicillin (100 U/ml), streptomycin (100 μg/ml) and 3% supernatant of CHO transfectants secreting murine SCF for 8 weeks then tested phenotypically (CD117+, FcεRI+) and functionally (β-hexosaminidase release in response to FcεRI crosslinking) before use for experiments. Only primary cell lines showing more than 95% CD117+/FcεRI+ cells were used for experiments.
1 × 10^5 mast cells were distributed in 50 µl Tyrode’s Buffer and adapted to 37°C for 30 min. Mast cells were next stimulated with DNP-BSA (200 ng/ml) after sensitization with 1 μg/ml of IgE anti DNP (Sigma-Aldrich) overnight. Supernatants were harvested and stored at −80°C. (β-hexosaminidase was assayed by measuring the release of p-nitrophenol from the substrate p-nitrophenyl N-acetyl-β-D-glucosaminide).
Mast cell supernatants (10 µg of total protein) were labeled with 1 µM individual ABPs (46b, 52b, or 57b) in 50 mM Tris, 120 mM NaCl, .1 mg/ml BSA, 50 μg/ml heparin, pH 8 at 25°C (Sigma-Aldrich) in a final volume of 500 µL. […] The molecular weight of each band was determined with the Image Lab Software v5 (Bio-Rad) with Dual Color Protein Precision Plus Standard (10–250 kDa; Bio-Rad) as reference. […]

Chain of β-tryptase (P20231 31-275): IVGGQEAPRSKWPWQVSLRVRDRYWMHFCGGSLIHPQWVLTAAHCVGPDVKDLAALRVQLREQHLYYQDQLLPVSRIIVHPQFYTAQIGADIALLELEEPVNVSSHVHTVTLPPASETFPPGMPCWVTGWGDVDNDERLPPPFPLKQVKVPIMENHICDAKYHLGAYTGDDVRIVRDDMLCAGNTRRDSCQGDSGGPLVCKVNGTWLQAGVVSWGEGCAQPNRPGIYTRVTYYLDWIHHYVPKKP

Compound | labeling of recombinant β-tryptase [1] | IC50 [2] [µM] | labeling of proteases in mast cell supernatants [3]
CC(=O)Nc1ccc(OP(=O)(Oc2ccc(NC(C)=O)cc2)C(Cc2ccc(NC(=N)N)cc2)NC(=O)OCCCc2cn(CCOCCOCCOCCNC(=O)CCCCC[C@H]3NC(=O)N[C@H]3C)nn2)cc1 (stereo partly drawn) [52b] | can label | > 10 | –
C#CCCCOC(=O)NC(c1ccc(NC(=N)N)cc1)P(=O)(Oc1ccccc1)Oc1ccccc1.O=C(O)C(F)(F)F (stereo not drawn) [37b, Pent-4-yn-1-yl ((diphenoxyphosphoryl)(4-guanidinophenyl)methyl)carbamate trifluoroacetate salt] | – | > 10 | –
C[C@@H]1NC(=O)N[C@@H]1CCCCCC(=O)NCCOCCOCCOCCn1cc(CCCOC(=O)NC(Cc2ccc(NC(=N)N)cc2)P(=O)(Oc2ccccc2)Oc2ccccc2)nn1 (stereo partly drawn) [50b, 3-(1-(18-((4R,5S)-5-methyl-2-oxoimidazolidin-4-yl)-13-oxo-3,6,9-trioxa-12-azaoctadecyl)-1H-1,2,3-triazol-4-yl)propyl (1-(diphenoxyphosphoryl)-2-(4-guanidinophenyl)ethyl)carbamate trifluoroacetate salt] | can label | > 10 | –
C#CCCCOC(=O)NC(C1CCN(C(=N)N)CC1)P(=O)(Oc1ccccc1)Oc1ccccc1 (stereo not drawn) [41b] | – | > 10 | –
C[C@@H]1NC(=O)N[C@@H]1CCCCCC(=O)NCCOCCOCCOCCn1cc(CCCOC(=O)NC(c2ccc(NC(=N)N)cc2)P(=O)(Oc2ccc(Cl)cc2)Oc2ccc(Cl)cc2)nn1 (stereo partly drawn) [57b] | slightly better resolution | – | can label proteases in a complex proteome
C[C@@H]1NC(=O)N[C@@H]1CCCCCC(=O)NCCOCCOCCOCCn1cc(CCCOC(=O)NC(CCCNC(=N)N)P(=O)(Oc2ccc(Cl)cc2)Oc2ccc(Cl)cc2)nn1 (stereo partly drawn) [46b] | not good ABP candidates | – | can label proteases in a complex proteome
C#CCCCOC(=O)NC(CCCNC(=N)N)P(=O)(Oc1ccccc1)Oc1ccccc1 (stereo not drawn) [32b] | – | > 10 | –
C[C@@H]1NC(=O)N[C@@H]1CCCCCC(=O)NCCOCCOCCOCCn1cc(CCCOC(=O)NC(CCCNC(=N)N)P(=O)(Oc2ccccc2)Oc2ccccc2)nn1 (stereo partly drawn) [45b] | not good ABP candidates | – | –
C#CCCCOC(=O)NC(Cc1ccc(NC(=N)N)cc1)P(=O)(Oc1ccccc1)Oc1ccccc1 (stereo not drawn) [34b] | – | > 10 | –
C#CCCCOC(=O)NC(Cc1ccc(NC(=N)N)cc1)P(=O)(Oc1ccc(Cl)cc1)Oc1ccc(Cl)cc1 (stereo not drawn) [36b] | – | > 10 | –
C[C@@H]1NC(=O)N[C@@H]1CCCCCC(=O)NCCOCCOCCOCCn1cc(CCCOC(=O)NC(Cc2ccc(NC(=N)N)cc2)P(=O)(Oc2ccc(Cl)cc2)Oc2ccc(Cl)cc2)nn1 (stereo partly drawn) [54b] | can label; also recorded: slightly better resolution | > 10 | can label proteases in a complex proteome; also recorded: best resolution
C#CCCCOC(=O)NC(Cc1ccc(NC(=N)N)cc1)P(=O)(Oc1ccc(NC(C)=O)cc1)Oc1ccc(NC(C)=O)cc1 (stereo not drawn) [35b] | – | > 10 | –

Reference: article PMC9849758, “Chemically diverse activity-based probes with unexpected inhibitory mechanisms targeting trypsin-like serine proteases” (Frontiers in Chemistry, 2023)
